For one data set, the system named is MCF-7 cells. Put plainly: Wound healing assay. Format: cell-based. Particulars: Homo sapiens, MCF7, 24 h, read-out: inhibition of wound closure compared to control. As for the experimental part: To determine MCF-7 cell migration properties, 1 × 10^5 cells were seeded in 24-well plates and cultured until confluent. Then, cell monolayers were scratched using a sterile 200 μL pipette tip, and cell cultures were allowed to grow for 24 h under the indicated treatments. At the end of incubation period, culture medium was removed and wells were washed twice with PBS, then, cells were fixed with ice-cold methanol and stained with 0.1% crystal violet. In addition, cell monolayers were fixed and stained just after scratching to represent zero time migration. Finally, cell migration into the scratch area was documented by inverted light microscopy and quantified using NIH ImageJ software.

Another data set deals with MDA-MB-231 cells. The data set is described as follows: Bicameral (transwell) migration assay. As to conditions: 24 h; 5 μM 8b, 10 μM 9b. Format: cell-based, human. As for the experimental part: To determine MDA-MB-231 cell migration and invasion cell capacities, Corning® Costar® Transwell® cell culture inserts with 8.0 μm pore polycarbonate filters (Sigma Aldrich, CLS3464) and Corning™ BioCoat™ Matrigel™ Invasion Chamber with Corning Matrigel Matrix™ cell culture inserts (Thermo fisher scientific, Waltham, MA, USA) respectively were used. Briefly, 6 × 10^4 cells in 200 μL were seeded in the upper chamber and the bottom chamber was filled with 800 μL of medium. After 24 h under indicated treatments, the remaining cells in the upper chamber were gently removed with a cotton swab, moistened with medium, and the inserts were carefully washed twice with 37 °C warmed PBS. Then, attached cells at the bottom side of the membrane were fixed by immersing in ice cold methanol for 2 min and stained with 0.1% crystal violet for 15 min at room temperature. Stained cells were photographed and quantified using NIH ImageJ software.

Data set [1] concerns intersegmental blood vessels (ISVs) of Tg(fli1:EGFP) zebrafish embryos. The data set is described as follows: Anti-angiogenic activity in Tg(fli1:EGFP) zebrafish embryos. Format: in vivo. On the procedure: The inhibitory activity of 8b on angiogenesis was examined using embryos of the transgenic zebrafish Tg(fli1:EGFP) line with GFP-labeled endothelial cells, as previously described. Briefly, embryos at the 6–8 hpf stage were exposed to three non-toxic concentrations and incubated at 28 °C by 48 hpf. At 48 hpf, the treated embryos were anesthetized with 0.02% tricaine, imaged under a fluorescence microscope (Olympus BX51, Applied Imaging Corp., San Jose, CA, USA), and analyzed for the development of intersegmental blood vessels (ISVs). The experiment was performed three times using ten embryos per concentration. ISV lengths were measured using ImageJ program, and expressed as mean value with standard deviation. Inhibitory effect of the applied treatment was determined in relation to the control (DMSO-treated) group, arbitrarily set to 100%.

The subject of data set [2] is MDA-MB-231 xenografts in Tg(fli1:EGFP) zebrafish embryos. Put plainly: Zebrafish MDA-MB-231 xenograft model. As to conditions: for reduction of tumor mass vs untreated control: 3 days post injection. Format: in vivo. As for the experimental part:
The human breast carcinoma MDA-MB 231 cell line was cultured in DMEM:Ham’s 12 (1:1) medium (Sigma-Aldrich, St. Louis, MO, USA) supplemented with 10% FBS (Sigma-Aldrich, St. Louis, MO, USA), 100 µg/mL streptomycin, and 100 U/mL penicillin (Sigma-Aldrich, St. Louis, MO, USA), and grown as a monolayer in humidified atmosphere of 95% air and 5% CO2 at 37 °C. Prior to microinjection, the cells were washed once with PBS and trypsinized (0.25% trypsin/0.53 mM EDTA) (Sigma-Aldrich, St. Louis, MO, USA) to obtain a single-cell suspension. After centrifugation at 1200 rpm for 5 min, the cells were resuspended in serum-free DMEM medium and labeled with 2 µM Cell Tracker TM Red CMTPX (Thermo Fisher Scientific) according to the manufacturer’s instructions.
The zebrafish xenografts with human MDA-MB-231 cells were established according to the previously described procedure with slight modification. A day before the microinjections, Tg(fli1:EGFP) embryos kept at 28 °C were manually dechorionated. At the 48 hpf stage, 5 nL of MDA-MB 231 cell suspension containing 150 labeled cells was microinjected into the yolk of anesthetized embryos by a pneumatic picopump (PV820, World Precision Instruments, Sarasota, FL, USA). The exact number of cells was confirmed by dispensing the injected volume onto a microscope slide and by visual counting. After injection, embryos were incubated, to recover, for at least for 60 min at 28 °C, dead embryos were removed, while alive embryos were transferred into 24-well plates containing 1 mL of E3 water and 10 embryos per well. The injected xenografts were treated with the three doses of 8b (3.13, 6.25, and 12.5 µM), and maintained at 31–32 °C by 120 hpf. DMSO (0.25%) was used as a negative control. The survival and development of the xenografted embryos was recorded every day until the end of experiment (3 days post injection = 3 dpi), at which point, anesthetized xenografts were processed by fluorescent microscopy. The tumor size, number of xenografts with disseminated tumor cells in the caudal region, and number of disseminated cells per embryo were determined. The tumor size was determined by the fluorescent images using ImageJ. The experiment was repeated two times using 10 embryos per concentration.

Structures are written as SMILES.

`O=C(NO)c1ccc(CN2CCN(C(c3ccccc3)c3ccccc3)CC2)cc1` [Compound 9b, 4-(4-(diphenylmethyl)-piperazin-1-ylmethyl)-N-hydroxy-benzamide]: in the data set with MCF-7 cells, the inhibition – broadly, the change of the read-out against control, counted positive when it falls – at 10 µM turned out to be 63.9%. The “anti-migratory property (% compared to control)” value in the data set on MDA-MB-231 cells is reported as “did not reduce”.

As to `O=C(CCCCCCCN1CCN(C(c2ccccc2)c2ccccc2)CC1)NO` [Compound 8b, 8-(4-(diphenylmethyl)-piperazin-1-yl)-N-hydroxyoctanamide], in data set [1] (6.25 µM, 48 hpf), the “embryos affected in terms of ISV growth (anti-angiogenic phenotype)” value was ~ 60%. Moreover, the “toxic response in embryos at anti-angiogenic effective doses” value in data set [1] (8b 6.25-50 µM, Suten effective dose 1.56 µM) is reported as “did not elicit any toxic response”. Also, in data set [1] (25 and 50 µM, 48 hpf), the ISV inhibition entry is listed as “majority of ISVs were inhibited”. In addition, in data set [2] (3.13 µM, 3-day treatment), the “number of metastasis per embryo, fold lower than untreated” value is reported as “up to 9.6 fold” and the “reduction of number of embryos exhibiting metastases” value was 50%. For the same molecule, the “reduction of tumor mass vs untreated control” value in data set [2] (3.13 µM) is 56.1 ± 5.2%. Also, in data set [2] (12.5 µM), the “dissemination of MDA-MB-231 cells” value was “completely inhibited” and the “reduction of tumor mass vs untreated control” value is given as “almost complete reduction”. Further, the “ED50 (effective drug concentration reducing tumor mass by 50% in relation to the control)” value in data set [2] (3-day treatment) came out at 2.67 µM. Also, the “toxic side effects in xenografts” value in data set [2] (3.13, 6.25 and 12.5 µM, 3-day treatment) is “no toxic side effects were observed”.
